In the supplement of paper PMC10627819:

Assays:
Test in all cases: fitness (endpoint OD595 vs no drug) (fraction); higher = more growth
[1] = system: S. aureus DSM 20231
Outline: (§1)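 Fitness expresses the optical density reached at the stationary-phase transition as a fraction of the robust mean of no-drug control wells. It is capped at 1. Measurements were OD595 every 30 min for 14 h at 37 °C after inoculation of 384-well plates at OD595 0.01 (30 µl, or 55 µl for S. pneumoniae), minus the first reading.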

[2] = system: B. subtilis 168
Outline: as §1

[3] = system: S. pneumoniae D39V
Outline: as §1
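Further: OD595 on entry to stationary phase over no-drug wells; at most 1.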

CN(C)[C@@H]1C(O)=C(C(N)=O)C(=O)[C@@]2(O)C(O)=C3C(=O)c4c(O)ccc(Cl)c4[C@@](C)(O)[C@H]3C[C@@H]12 [Chlortetracycline] + CC(=O)NC[C@H]1CN(c2ccc(N3CCOCC3)c(F)c2)C(=O)O1 [Linezolid]
one replicate
Details | fitness
[1], first compound 0.006 µg/mL, partner 0.125 µg/mL | 0.649
[1], first compound 0.006 µg/mL, partner 0.25 µg/mL | 0.59
[1], first compound 0.006 µg/mL, partner 0.5 µg/mL | 0.213
[1], first compound 0.012 µg/mL, partner 1 µg/mL | 0.0536
[1], first compound 0.024 µg/mL, partner 1 µg/mL | 0.0397
[1], first compound 0.048 µg/mL, partner 1 µg/mL | 0.0171
[2], first compound 0.0475 µg/mL, partner 0.0625 µg/mL | 0.751
[2], first compound 0.095 µg/mL, partner 0.0625 µg/mL | 0.53
[2], first compound 0.19 µg/mL, partner 0.0625 µg/mL | 0.213

Details | fitness
[1], first compound 0.012 µg/mL, partner 0.125 µg/mL | 0.516
[1], first compound 0.012 µg/mL, partner 0.25 µg/mL | 0.423
[1], first compound 0.012 µg/mL, partner 0.5 µg/mL | 0.135
[1], first compound 0.024 µg/mL, partner 0.25 µg/mL | 0.179
[1], first compound 0.024 µg/mL, partner 0.5 µg/mL | 0.0849
[1], first compound 0.048 µg/mL, partner 0.125 µg/mL | 0.141
[1], first compound 0.048 µg/mL, partner 0.25 µg/mL | 0.0729
[1], first compound 0.048 µg/mL, partner 0.5 µg/mL | 0.0288
[2], first compound 0.0475 µg/mL, partner 0.25 µg/mL | 0.0413
[2], first compound 0.0475 µg/mL, partner 0.5 µg/mL | 0.0371
[2], first compound 0.095 µg/mL, partner 0.25 µg/mL | 0.0555
[2], first compound 0.095 µg/mL, partner 0.5 µg/mL | 0.0371
[2], first compound 0.19 µg/mL, partner 0.125 µg/mL | 0.0875
[2], first compound 0.19 µg/mL, partner 0.25 µg/mL | 0.0467
[2], first compound 0.19 µg/mL, partner 0.5 µg/mL | 0.0344
[3], first compound 0.012 µg/mL, partner 0.105 µg/mL | 0.785
[3], first compound 0.012 µg/mL, partner 0.21 µg/mL | 0.685
[3], first compound 0.012 µg/mL, partner 0.42 µg/mL | 0.422
[3], first compound 0.024 µg/mL, partner 0.105 µg/mL | 0.739
[3], first compound 0.024 µg/mL, partner 0.21 µg/mL | 0.585
[3], first compound 0.024 µg/mL, partner 0.42 µg/mL | 0.251
[3], first compound 0.048 µg/mL, partner 0.105 µg/mL | 0.609
[3], first compound 0.048 µg/mL, partner 0.21 µg/mL | 0.387
[3], first compound 0.048 µg/mL, partner 0.42 µg/mL | 0.211
[3], first compound 0.375 µg/mL, partner 0.2 µg/mL | 0.0262
[3], first compound 0.375 µg/mL, partner 0.4 µg/mL | 0.028
[3], first compound 0.375 µg/mL, partner 0.8 µg/mL | 0.0276
[3], first compound 0.75 µg/mL, partner 0.2 µg/mL | 0.025
[3], first compound 0.75 µg/mL, partner 0.4 µg/mL | 0.04
[3], first compound 0.75 µg/mL, partner 0.8 µg/mL | 0.0503
[3], first compound 1.5 µg/mL, partner 0.2 µg/mL | 0.0494
[3], first compound 1.5 µg/mL, partner 0.4 µg/mL | 0.0334
[3], first compound 1.5 µg/mL, partner 0.8 µg/mL | 0.044

CN(C)[C@@H]1C(O)=C(C(N)=O)C(=O)[C@@]2(O)C(O)=C3C(=O)c4c(O)ccc(Cl)c4[C@@](C)(O)[C@H]3C[C@@H]12 [Chlortetracycline] + CN1C2=CC=CC=C2N=C3C1=CC=CC3=O [Pyocyanin]
one replicate
Details | fitness
[1], first compound 0.006 µg/mL, partner 1.25 µg/mL | 0.748
[1], first compound 0.006 µg/mL, partner 2.5 µg/mL | 0.692
[1], first compound 0.006 µg/mL, partner 5 µg/mL | 0.602
[3], first compound 0.012 µg/mL, partner 0.325 µg/mL | 0.893
[3], first compound 0.012 µg/mL, partner 0.65 µg/mL | 0.958
[3], first compound 0.024 µg/mL, partner 0.325 µg/mL | 0.932
[3], first compound 0.024 µg/mL, partner 0.65 µg/mL | 0.885
[3], first compound 0.048 µg/mL, partner 0.325 µg/mL | 0.858
[3], first compound 0.048 µg/mL, partner 0.65 µg/mL | 0.868

fitness
Details | partner 0.325 µg/mL | partner 0.65 µg/mL | partner 1.25 µg/mL | partner 1.3 µg/mL | partner 2.5 µg/mL | partner 5 µg/mL
[1], first compound 0.012 µg/mL | – | – | 0.487 | – | 0.43 | 0.359
[1], first compound 0.024 µg/mL | – | – | 0.185 | – | 0.147 | 0.121
[1], first compound 0.048 µg/mL | – | – | 0.0813 | – | 0.0826 | 0.0871
[2], first compound 0.0475 µg/mL | – | – | 0.837 | – | 0.825 | 0.692
[2], first compound 0.095 µg/mL | – | – | 0.774 | – | 0.7 | 0.597
[2], first compound 0.19 µg/mL | – | – | 0.594 | – | 0.529 | 0.416
[3], first compound 0.375 µg/mL | 0.0228 | 0.0497 | – | 0.031 | – | –
[3], first compound 0.75 µg/mL | 0.0553 | 0.0813 | – | 0.104 | – | –
[3], first compound 1.5 µg/mL | 0.0507 | 0.0698 | – | 0.0588 | – | –
